From US20100029620A1, “SUBSTITUTED TRIAZOLINE, TETRAZOLONE AND IMIDAZOLONE DERIVATIVES FOR USE AS A MEDICINE” (JANSSEN PHARMACEUTICA N.V., priority 2004, published 2010)

Experiments:
[1] = target: T1, human adrenergic-α2A receptor (Homo sapiens, UniProt P08913); test: Radioligand binding experiment for α2A-adrenoceptor ([3H]-raulwolscine competition, CHO cell membranes); conditions: [3H]raulwolscine 1 nM, membranes of CHO cells transfected with human α2A receptor; read-out: pIC50 α2A (converted)
T1 construct: expressed in transfected cells; membrane preparation
T1 sequence (P08913 1-465): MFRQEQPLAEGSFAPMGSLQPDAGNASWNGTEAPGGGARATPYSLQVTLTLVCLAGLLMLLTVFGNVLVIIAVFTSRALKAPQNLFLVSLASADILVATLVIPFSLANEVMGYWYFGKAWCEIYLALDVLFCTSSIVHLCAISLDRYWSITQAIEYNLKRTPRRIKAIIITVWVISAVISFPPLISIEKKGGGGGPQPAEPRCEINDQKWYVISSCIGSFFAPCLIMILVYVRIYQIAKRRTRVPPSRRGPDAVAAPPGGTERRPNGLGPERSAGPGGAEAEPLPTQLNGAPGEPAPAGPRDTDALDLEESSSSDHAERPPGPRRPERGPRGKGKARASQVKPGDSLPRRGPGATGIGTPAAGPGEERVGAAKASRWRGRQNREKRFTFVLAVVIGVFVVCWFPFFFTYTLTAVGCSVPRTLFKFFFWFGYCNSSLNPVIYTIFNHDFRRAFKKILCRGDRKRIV
In short: (§1)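 CHO cell membranes stably expressing human α2A, α2B or α2C receptor were incubated with 1 nM [3H]-raulwolscine ± test compound, 60 min at 25° C in glycylglycine 25 mM, pH 8.0, then filtered and counted. Nonspecific binding: 1 μM oxymetazoline (α2A, α2B) or 1 μM spiroxatrine (α2C). pIC50 from nonlinear regression of % total binding.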

[2] = target: T2, human adrenergic-α2C receptor (Homo sapiens, UniProt P18825); test: Radioligand binding experiment for α2C-adrenoceptor ([3H]-raulwolscine competition, CHO cell membranes); conditions: [3H]raulwolscine 1 nM, membranes of CHO cells transfected with human α2C receptor; read-out: pIC50 α2C (converted)
T2 construct: expressed in transfected cells; membrane preparation
T2 sequence (P18825 1-462): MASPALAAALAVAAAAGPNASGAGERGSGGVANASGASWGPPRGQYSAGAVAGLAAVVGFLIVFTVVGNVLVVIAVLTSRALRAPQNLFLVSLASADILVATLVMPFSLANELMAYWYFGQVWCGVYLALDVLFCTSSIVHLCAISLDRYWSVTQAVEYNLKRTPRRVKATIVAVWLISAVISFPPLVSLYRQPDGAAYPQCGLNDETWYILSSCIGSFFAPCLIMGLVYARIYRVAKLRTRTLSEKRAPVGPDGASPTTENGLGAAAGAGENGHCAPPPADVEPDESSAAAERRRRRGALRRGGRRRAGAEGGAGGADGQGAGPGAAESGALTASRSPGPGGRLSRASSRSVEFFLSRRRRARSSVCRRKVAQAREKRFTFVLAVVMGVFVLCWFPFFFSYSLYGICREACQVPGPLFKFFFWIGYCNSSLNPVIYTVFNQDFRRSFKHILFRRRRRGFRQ
In short: as §1

[3] = target: T3, human adrenergic-α2B receptor (Homo sapiens, UniProt P18089); test: Radioligand binding experiment for α2B-adrenoceptor ([3H]-raulwolscine competition, CHO cell membranes); conditions: [3H]raulwolscine 1 nM, membranes of CHO cells transfected with human α2B receptor; read-out: pIC50 α2B (converted)
T3 construct: expressed in transfected cells; membrane preparation
T3 sequence (P18089 1-450): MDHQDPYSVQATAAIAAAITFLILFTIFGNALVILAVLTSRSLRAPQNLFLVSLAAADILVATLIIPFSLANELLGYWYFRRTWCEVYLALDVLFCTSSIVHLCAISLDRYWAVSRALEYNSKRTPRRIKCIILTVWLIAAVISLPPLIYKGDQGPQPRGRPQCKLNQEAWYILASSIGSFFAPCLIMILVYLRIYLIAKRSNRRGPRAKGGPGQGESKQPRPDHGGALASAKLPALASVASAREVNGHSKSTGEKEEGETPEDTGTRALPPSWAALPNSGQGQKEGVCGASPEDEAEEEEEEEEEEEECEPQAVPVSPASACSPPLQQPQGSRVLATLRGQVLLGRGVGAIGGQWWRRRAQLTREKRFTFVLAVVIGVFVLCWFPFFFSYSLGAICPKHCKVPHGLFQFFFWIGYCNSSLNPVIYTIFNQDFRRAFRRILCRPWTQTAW
In short: as §1

| Structure (SMILES) | IC50 [1] [µM] | IC50 [2] [µM] | IC50 [3] [µM] |
| --- | --- | --- | --- |
| C/C(=C\c1ccccc1)CN1CCC(n2cnn(-c3ccc(CN)cc3)c2=O)CC1 [compound 33] | 0.0158 | 0.0158 | 0.0631 |
| CN(Cc1ccccc1)Cc1ccc(-n2cnn(CCNCCOc3ccccc3)c2=O)cc1 [compound 94] | 0.0316 | 0.00316 | 0.126 |
| C/C(=C\c1ccccc1)CN1CCC(n2ncn(-c3ccc(CN4C(=O)c5ccccc5C4=O)cc3)c2=O)CC1 [compound 109] | 0.0316 | 0.002 | 0.0398 |
| C/C(=C\c1ccccc1)CN1CCC(n2cnn(-c3ccc(NCCN(C)C)cc3)c2=O)CC1 [compound 31] | 0.0501 | 0.0126 | 0.0251 |

Other lines, results leading:

| IC50 [1] [µM] | IC50 [2] [µM] | IC50 [3] [µM] | Structure (SMILES) |
| --- | --- | --- | --- |
| 0.158 | 0.00501 | 0.0316 | O=c1n(-c2ccc(N3CCCCC3)cc2)cnn1CC1CCN(CCOc2ccccc2)CC1 [compound 63] |
| 0.0501 | 0.000631 | 0.0126 | O=c1n(-c2ccc(CN3CCCCC3)cc2)cnn1CC1CCN(CCOc2ccccc2)CC1 [compound 64] |
| 0.0631 | 0.00316 | 0.251 | CCOC(=O)C1CCN(Cc2ccc(-n3cnn(CCNCCOc4ccccc4)c3=O)cc2)CC1 [compound 19] |
| 0.0251 | 0.001 | 0.00794 | CN(CCNc1ccc(-n2cnn(CC3CCN(CCOc4ccccc4)CC3)c2=O)cc1)CC1CCCCC1 [compound 42] |
| 0.126 | 0.00158 | 0.1 | CN1CCCN(c2ccc(-n3cnn(CCNCCOc4ccccc4)c3=O)cc2)CC1 [compound 12] |
| 0.158 | 0.00316 | 0.251 | O=c1n(-c2ccc(CN3CCOCC3)cc2)cnn1CCNCCOc1ccccc1 [compound 23] |
